According to patent US20180353568A1 (priority 2015, published 2018):
Entries after “also recorded” stand apart in the source; their conditions may differ.

Key:
[1] = test system: HIV-luc/Zaire EBOV-GP2014 pseudotype virus; type: cell-based, Ebola virus
[2] = test system: HIV-luc/Zaire EBOV-GP2014 pseudotype virus; type: cell-based, Ebola virus; remark: listed apart in the source
[3] = test system: 293T cells
[4] = test system: envelope protein GP of Ebola virus (HIV-luc/EBOV-GP pseudotype virus); type: cell-based
[5] = test system: HIV-luc/Zaire EBOV-GP2014 pseudotype virus; type: cell-based, Ebola virus; remark: listed apart in the source
[6] = test system: HIV-luc/Zaire EBOV-GP2014 pseudotype virus; type: cell-based, Ebola virus; remark: listed apart in the source
[7] = test system: envelope G protein of vesicular stomatitis virus, VSV-G (HIV-luc/VSV-G pseudotype virus); type: cell-based

In the case of teicoplanin, the “inhibitory effect on virus in A549 cells” value [1] is reported as “good inhibitory effect”, the “inhibitory effect on virus in Hela cells” value [2] is reported as “good inhibitory effect” and the “cytotoxicity in 293T cells” value [3] is reported as “non-cytotoxic”. The “toxicity (FIG. 3, CC50 test)” value [3] was “low”, the “inhibitory effect on the envelope protein of Ebola virus, EBOV-GP (entry)” value [4] was “can inhibit the entry of Ebola virus; also recorded: good inhibitory effect” and the IC50 ([4]; read-out: IC50 of teicoplanin (inhibition of Ebola pseudovirus infecting 293T cells)) was 200 nM. The “inhibitory effect on virus in THP-1 cells” value [5] was “good inhibitory effect”, the “inhibitory effect on virus in HUVECs” value [6] was “good inhibitory effect” and the “inhibitory effect on the envelope G protein of vesicular stomatitis virus, VSV-G” value [7] was “no inhibitory effect”.
